Measured values reported in ChEMBL document CHEMBL1201862, “PubChem BioAssay data set” (2004).
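Interpolation was linear, between the two tested concentrations surrounding the appropriate level; five concentrations were tested over 48 hours in 96-well plates. The concentration for 50% growth inhibition is given as GI50.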 Calls of active or inactive are those of the source. No stated cut-off is given here; in the data, active = GI50 up to about 1.1 µM and inactive = higher.

Columns and labels:
Assay in all cases: NCI anticancer screen, dose series, 48 h
NCI-H226 = test system: NCI-H226
SNB-78 = test system: SNB-78
HOP-18 = test system: HOP-18
OVCAR-4 = test system: OVCAR-4
SNB-19 = test system: SNB-19
MOLT-4 = test system: MOLT-4
HCT-116 = test system: HCT-116
UO-31 = test system: UO-31
SW-620 = test system: SW-620
IGROV-1 = test system: IGROV-1
EKVX = test system: EKVX
HOP-92 = test system: HOP-92
HT-29 = test system: HT-29
786-0 = test system: 786-0
HCC 2998 = test system: HCC 2998
OVCAR-3 = test system: OVCAR-3
DMS-114 = test system: DMS-114
SK-OV-3 = test system: SK-OV-3
HL-60 = test system: HL-60
UACC-257 = test system: UACC-257
SK-MEL-5 = test system: SK-MEL-5
SF-295 = test system: SF-295
DLD-1 = test system: DLD-1
KM12 = test system: KM12
CAKI-1 = test system: CAKI-1
M19-MEL = test system: M19-MEL
UACC-62 = test system: UACC-62
TK-10 = test system: TK-10
SK-MEL-2 = test system: SK-MEL-2
K562 = test system: K562
M14 = test system: M14
RPMI-8226 = test system: RPMI-8226
A549 = test system: A549
SF-539 = test system: SF-539
CCRF-CEM = test system: CCRF-CEM
Malme-3M = test system: Malme-3M
COLO 205 = test system: COLO 205
OVCAR-8 = test system: OVCAR-8
HOP-62 = test system: HOP-62
A498 = test system: A498
NCI-H522 = test system: NCI-H522
LOX IMVI = test system: LOX IMVI
U-251 = test system: U-251
SN12C = test system: SN12C
NCI/ADR-RES = test system: NCI/ADR-RES
OVCAR-5 = test system: OVCAR-5
KM-20L2 = test system: KM-20L2
SK-MEL-28 = test system: SK-MEL-28
MCF7 = test system: MCF7
NCI-H460 = test system: NCI-H460
RXF 393 = test system: RXF 393
NCI-H23 = test system: NCI-H23
SF-268 = test system: SF-268
DMS-273 = test system: DMS-273
SNB-75 = test system: SNB-75
HCT-15 = test system: HCT-15
SR = test system: SR
BT-549 = test system: BT-549
ACHN = test system: ACHN
Hs-578T = test system: Hs-578T
T47D = test system: T47D
MDA-MB-435 = test system: MDA-MB-435
PC-3 = test system: PC-3
MDA-MB-231 = test system: MDA-MB-231
MDA-N = test system: MDA-N
DU-145 = test system: DU-145

In the case of `CSc1nc(NC2OC(COC(C)=O)C(OC(C)=O)C(OC(C)=O)C2OC(C)=O)c(/N=C(\C)C(C)=O)c(=O)[nH]1` (stereo unspecified), the GI50 (NCI-H226) is reported as > 100000 nM (inactive), the GI50 (SNB-78) is reported as > 100000 nM (inactive) and the GI50 (HOP-18) is reported as > 100000 nM (inactive). The GI50 (OVCAR-4) was > 100000 nM (inactive), the GI50 (SNB-19) was > 100000 nM (inactive) and the GI50 (MOLT-4) was > 100000 nM (inactive). The GI50 (HCT-116) was > 100000 nM (inactive), the GI50 (UO-31) was > 100000 nM (inactive) and the GI50 (SW-620) was > 100000 nM (inactive). The GI50 (IGROV-1) was > 100000 nM (inactive), the GI50 (EKVX) was > 100000 nM (inactive) and the GI50 (HOP-92) was > 100000 nM (inactive). The GI50 (HT-29) was > 100000 nM (inactive), the GI50 (786-0) was > 100000 nM (inactive) and the GI50 (HCC 2998) was > 100000 nM (inactive). For the same compound, the GI50 (OVCAR-3) was > 100000 nM (inactive), the GI50 (DMS-114) was > 100000 nM (inactive) and the GI50 (SK-OV-3) was > 100000 nM (inactive). For the same compound, the GI50 (HL-60) was > 100000 nM (inactive), the GI50 (UACC-257) was > 100000 nM (inactive) and the GI50 (SK-MEL-5) was > 100000 nM (inactive). The GI50 (SF-295) was > 100000 nM (inactive), the GI50 (DLD-1) was 79100 nM (inactive) and the GI50 (KM12) was > 100000 nM (inactive). For the same compound, the GI50 (CAKI-1) was > 100000 nM (inactive), the GI50 (M19-MEL) was > 100000 nM (inactive) and the GI50 (UACC-62) was > 100000 nM (inactive). The GI50 (TK-10) was > 100000 nM (inactive), the GI50 (SK-MEL-2) was > 100000 nM (inactive) and the GI50 (K562) was > 100000 nM (inactive). The GI50 (M14) was > 100000 nM (inactive), the GI50 (RPMI-8226) was > 100000 nM (inactive) and the GI50 (A549) was > 100000 nM (inactive). For the same compound, the GI50 (SF-539) was > 100000 nM (inactive), the GI50 (CCRF-CEM) was > 100000 nM (inactive) and the GI50 (Malme-3M) was > 100000 nM (inactive). The GI50 (COLO 205) was > 100000 nM (inactive), the GI50 (OVCAR-8) was > 100000 nM (inactive) and the GI50 (HOP-62) was 42500 nM (inactive).

`Cc1c2ccnc(-c3ccccc3)c2cc2c1[nH]c1ccccc12` was tested, and the GI50 (NCI-H226) was 2640 nM (inactive), the GI50 (A498) was 219 nM (active) and the GI50 (NCI-H522) was 4520 nM (inactive). For the same compound, the GI50 (SNB-78) was 4320 nM (inactive), the GI50 (LOX IMVI) was 1050 nM (active) and the GI50 (HOP-18) was 2150 nM (inactive). For the same compound, the GI50 (OVCAR-4) was 2560 nM (inactive), the GI50 (SNB-19) was 3660 nM (inactive) and the GI50 (U-251) was 873 nM (active). For the same compound, the GI50 (MOLT-4) was 2750 nM (inactive), the GI50 (HCT-116) was 2120 nM (inactive) and the GI50 (UO-31) was 1330 nM (inactive). For the same compound, the GI50 (SW-620) was 2480 nM (inactive), the GI50 (IGROV-1) was 2630 nM (inactive) and the GI50 (SN12C) was 2990 nM (inactive). The GI50 (NCI/ADR-RES) was 492 nM (active), the GI50 (EKVX) was 2920 nM (inactive) and the GI50 (HOP-92) was 1250 nM (inactive). For the same compound, the GI50 (HT-29) was 887 nM (active), the GI50 (OVCAR-5) was 3770 nM (inactive) and the GI50 (HCC 2998) was 3070 nM (inactive). For the same compound, the GI50 (OVCAR-3) was 3400 nM (inactive), the GI50 (KM-20L2) was 2610 nM (inactive) and the GI50 (SK-MEL-28) was 4290 nM (inactive). For the same compound, the GI50 (DMS-114) was 1690 nM (inactive), the GI50 (SK-OV-3) was 2900 nM (inactive) and the GI50 (HL-60) was 2090 nM (inactive). The GI50 (UACC-257) was 2700 nM (inactive), the GI50 (SK-MEL-5) was 614 nM (active) and the GI50 (SF-295) was 879 nM (active). For the same compound, the GI50 (DLD-1) was 2990 nM (inactive), the GI50 (MCF7) was 2130 nM (inactive) and the GI50 (KM12) was 1450 nM (inactive). The GI50 (NCI-H460) was 1060 nM (active), the GI50 (CAKI-1) was 655 nM (active) and the GI50 (M19-MEL) was 959 nM (active). For the same compound, the GI50 (UACC-62) was 1090 nM (active), the GI50 (RXF 393) was 2420 nM (inactive) and the GI50 (NCI-H23) was 1010 nM (active). The GI50 (SK-MEL-2) was 2620 nM (inactive), the GI50 (K562) was 1580 nM (inactive) and the GI50 (RPMI-8226) was 2770 nM (inactive). The GI50 (SF-268) was 4310 nM (inactive), the GI50 (A549) was 1290 nM (inactive) and the GI50 (SF-539) was 2450 nM (inactive). For the same compound, the GI50 (CCRF-CEM) was 3260 nM (inactive), the GI50 (Malme-3M) was 3370 nM (inactive) and the GI50 (DMS-273) was 425 nM (active). The GI50 (COLO 205) was 735 nM (active), the GI50 (OVCAR-8) was 1130 nM (inactive) and the GI50 (SNB-75) was 2330 nM (inactive). For the same compound, the GI50 (HOP-62) was 2600 nM (inactive) and the GI50 (HCT-15) was 773 nM.

`Cn1c2ccccc2c2c(-c3ccccc3)cc3c(c21)C(=O)C=CC3=O` was tested, and the GI50 (NCI-H226) was 2180 nM (inactive), the GI50 (A498) was 2230 nM (inactive) and the GI50 (NCI-H522) was 1230 nM (inactive). For the same compound, the GI50 (SR) was 195 nM (active), the GI50 (BT-549) was 1600 nM (inactive) and the GI50 (LOX IMVI) was 3260 nM (inactive). The GI50 (OVCAR-4) was 2460 nM (inactive), the GI50 (SNB-19) was 4050 nM (inactive) and the GI50 (ACHN) was 1630 nM (inactive). For the same compound, the GI50 (Hs-578T) was 3540 nM (inactive), the GI50 (U-251) was 4050 nM (inactive) and the GI50 (MOLT-4) was 280 nM (active). For the same compound, the GI50 (HCT-116) was 1450 nM (inactive), the GI50 (UO-31) was 1610 nM (inactive) and the GI50 (SW-620) was 421 nM (active). For the same compound, the GI50 (IGROV-1) was 2300 nM (inactive), the GI50 (SN12C) was 2390 nM (inactive) and the GI50 (NCI/ADR-RES) was 3330 nM (inactive). The GI50 (EKVX) was > 5300 nM (inactive), the GI50 (HOP-92) was 1960 nM (inactive) and the GI50 (HT-29) was 3830 nM (inactive). For the same compound, the GI50 (OVCAR-5) was > 8510 nM (inactive), the GI50 (T47D) was 1380 nM (inactive) and the GI50 (786-0) was 1570 nM (inactive). The GI50 (MDA-MB-435) was 1920 nM (inactive), the GI50 (HCC 2998) was > 4880 nM (inactive) and the GI50 (OVCAR-3) was 2050 nM (inactive). The GI50 (PC-3) was 3020 nM (inactive), the GI50 (SK-MEL-28) was 2000 nM (inactive) and the GI50 (SK-OV-3) was > 10000 nM (inactive). For the same compound, the GI50 (MDA-MB-231) was 2430 nM (inactive), the GI50 (HL-60) was 361 nM (active) and the GI50 (UACC-257) was 2110 nM (inactive). For the same compound, the GI50 (SK-MEL-5) was 2960 nM (inactive), the GI50 (SF-295) was > 10000 nM (inactive) and the GI50 (MDA-N) was 2370 nM (inactive). The GI50 (DU-145) was 5400 nM (inactive), the GI50 (MCF7) was 1720 nM (inactive) and the GI50 (KM12) was 4430 nM (inactive). The GI50 (NCI-H460) was 6070 nM (inactive), the GI50 (CAKI-1) was 1910 nM (inactive) and the GI50 (UACC-62) was 1730 nM (inactive). The GI50 (RXF 393) was 2200 nM (inactive), the GI50 (NCI-H23) was 1940 nM (inactive) and the GI50 (TK-10) was 1920 nM (inactive). The GI50 (SK-MEL-2) was 3030 nM (inactive), the GI50 (K562) was 249 nM (active) and the GI50 (M14) was 1460 nM (inactive). For the same compound, the GI50 (RPMI-8226) was 1150 nM (inactive), the GI50 (SF-268) was 3360 nM (inactive) and the GI50 (A549) was > 10000 nM (inactive). For the same compound, the GI50 (SF-539) was 1920 nM (inactive), the GI50 (CCRF-CEM) was 228 nM (active) and the GI50 (Malme-3M) was 2060 nM (inactive). The GI50 (COLO 205) was 632 nM (active), the GI50 (OVCAR-8) was 2070 nM (inactive) and the GI50 (SNB-75) was > 5660 nM (inactive). For the same compound, the GI50 (HOP-62) was > 7400 nM (inactive) and the GI50 (HCT-15) was 1850 nM.
